Read-outs that look alike come from different tables or passages of the source.
Experiments:
AsPC-1 (K-Ras G12D) [1] = assay: Potency assay: pERK in AsPC-1 cells; format: cell-based; conditions: Homo sapiens
AsPC-1 (K-Ras G12D) [2] = assay: CellTiter-Glo cell viability assay, AsPC-1; format: cell-based; conditions: Homo sapiens, ASPC1, 120 h
Description: Determination of Cell Viability in RAS Mutant Cancer Cell Lines
Protocol: CellTiter-Glo® Cell Viability Assay
Note—The following protocol describes a procedure for monitoring cell viability of K-Ras mutant cancer cell lines in response to a compound of the invention. Other RAS isoforms may be employed, though the number of cells to be seeded will vary based on cell line used.
Test compounds (132.5 nL) were directly dispensed into the assay plates containing cells. […] On day 5, assay plates and their contents were equilibrated to room temperature for approximately 30 minutes. […] Luminescence was measured using the PerkinElmer Enspire. Data were normalized by the following: (Sample signal/Avg. DMSO)*100. The data were fit using a four-parameter logistic fit.

[3] = ASPC1, AsPC-1 cells, K-Ras G12D, read-out: pERK EC50 (AsPC-1 KRAS G12D)
[4] = AsPC-1, K-Ras G12D, 5-day treatment, read-out: AsPC-1 Cell Viability IC50
[5] = ASPC1, read-out: pERK EC50 (AsPC-1 KRAS G12D)
[6] = read-out: AsPC-1 Cell Viability IC50, AsPC-1, K-Ras G12D, 5-day treatment

Row | SMILES | EC50 (AsPC-1 (K-Ras G12D) [1]; [3]) [µM] | IC50 (AsPC-1 (K-Ras G12D) [2]; [4]) [µM] | EC50 (AsPC-1 (K-Ras G12D) [1]; [5]) [µM] | IC50 (AsPC-1 (K-Ras G12D) [2]; [6]) [µM]
1 | CCn1c(-c2cccnc2[C@H](C)OC)c2c3cc(ccc31)-c1cc(O)cc(c1)C[C@H](NC(=O)[C@H](C(C)C)N(C)C(=O)c1ccc(NC(=O)[C@H]3CN3)cn1)C(=O)N1CCC[C@H](N1)C(=O)OCC(C)(C)C2 [Compound 127] | < 5 | > 10 |  | 
2 | CCn1c(-c2cccnc2[C@H](C)OC)c2c3cc(ccc31)-c1cc(O)cc(c1)C[C@H](NC(=O)[C@H](C(C)C)N1CC[C@@H](NC(=O)[C@@H]3CN3)C1=O)C(=O)N1CCC[C@H](N1)C(=O)OCC(C)(C)C2 [Compound 129] | < 5 | 1 to 10 |  | 
3 | CCn1c(-c2cccnc2[C@H](C)OC)c2c3cc(ccc31)-c1cc(O)cc(c1)C[C@H](NC(=O)[C@H](C(C)C)N1CC[C@@]3(CCN(C[C@@H]4CN4)C3)C1=O)C(=O)N1CCC[C@H](N1)C(=O)OCC(C)(C)C2 [Compound 138] | < 5 | > 10 |  | 
4 | CCn1c(-c2cccnc2[C@H](C)OC)c2c3cc(ccc31)-c1cc(O)cc(c1)C[C@H](NC(=O)[C@H](C(C)C)N(C)C(=O)CNC(=O)[C@H]1CN1)C(=O)N1CCC[C@H](N1)C(=O)OCC(C)(C)C2 [Compound 140] |  |  | < 5 | 1 to 10
5 | CCn1c(-c2cccnc2[C@H](C)OC)c2c3cc(ccc31)-c1cc(O)cc(c1)C[C@H](NC(=O)[C@H](C(C)C)N(C)C(=O)CNC(=O)[C@@H]1CN1)C(=O)N1CCC[C@H](N1)C(=O)OCC(C)(C)C2 [Compound 147] |  |  | < 5 | 1 to 10
6 | CCn1c(-c2cccnc2[C@H](C)OC)c2c3cc(ccc31)-c1cc(O)cc(c1)C[C@H](NC(=O)[C@H](C(C)C)N1CC[C@@]3(CCN(C(=O)[C@H]4CN4)C3)C1=O)C(=O)N1CCC[C@H](N1)C(=O)OCC(C)(C)C2 [Compound 149] | < 5 | 1 to 10 |  | 
7 | CCn1c(-c2cccnc2[C@H](C)OC)c2c3cc(ccc31)-c1cc(O)cc(c1)C[C@H](NC(=O)[C@H](C(C)C)N(C)C(=O)[C@H]1CCCN1C(=O)[C@@H]1CN1)C(=O)N1CCC[C@H](N1)C(=O)OCC(C)(C)C2 [Compound 151] |  |  | < 5 | 1 to 10
8 | CCn1c(-c2cccnc2[C@H](C)OC)c2c3cc(ccc31)-c1cc(O)cc(c1)C[C@H](NC(=O)[C@H](C(C)C)N(C)C(=O)[C@H]1CCCN1C(=O)[C@H]1CN1)C(=O)N1CCC[C@H](N1)C(=O)OCC(C)(C)C2 [Compound 152] |  |  | < 5 | 1 to 10
9 | CCn1c(-c2cccnc2[C@H](C)OC)c2c3cc(ccc31)-c1cc(O)cc(c1)C[C@H](NC(=O)[C@H](C(C)C)N(C)C(=O)[C@H]1CC[C@@H](C)N1C(=O)[C@@H]1CN1)C(=O)N1CCC[C@H](N1)C(=O)OCC(C)(C)C2 [Compound 153] |  |  | < 5 | 1 to 10
10 | CCn1c(-c2cccnc2[C@H](C)OC)c2c3cc(ccc31)-c1cc(O)cc(c1)C[C@H](NC(=O)[C@H](C(C)C)N(C)C(=O)[C@H]1CC[C@@H](C)N1C(=O)[C@H]1CN1)C(=O)N1CCC[C@H](N1)C(=O)OCC(C)(C)C2 [Compound 154] |  |  | < 5 | 1 to 10
11 | CCn1c(-c2cccnc2[C@H](C)OC)c2c3cc(ccc31)-c1cc(O)cc(c1)C[C@H](NC(=O)[C@H](C(C)C)N(C)C(=O)[C@H]1CCN1C(=O)[C@@H]1CN1)C(=O)N1CCC[C@H](N1)C(=O)OCC(C)(C)C2 [Compound 157] | < 5 | 1 to 10 |  | 
12 | CCn1c(-c2cccnc2[C@H](C)OC)c2c3cc(ccc31)-c1cc(O)cc(c1)C[C@H](NC(=O)[C@H](C(C)C)N(C)C(=O)[C@H]1CCN1C(=O)[C@H]1CN1)C(=O)N1CCC[C@H](N1)C(=O)OCC(C)(C)C2 [Compound 158] | < 5 | 1 to 10 |  | 
13 | CCn1c(-c2cccnc2[C@H](C)OC)c2c3cc(ccc31)-c1cc(O)cc(c1)C[C@H](NC(=O)[C@H](C(C)C)N(C)C(=O)CN(C)C(=O)[C@H]1CN1CCO)C(=O)N1CCC[C@H](N1)C(=O)OCC(C)(C)C2 (some centres unmarked) [Compound 161] |  |  | < 5 | 1 to 10
14 | CCn1c(-c2cccnc2[C@H](C)OC)c2c3cc(ccc31)-c1cc(O)cc(c1)C[C@H](NC(=O)[C@H](C(C)C)N(C)C(=O)CN(C)C(=O)[C@@H]1CN1CCO)C(=O)N1CCC[C@H](N1)C(=O)OCC(C)(C)C2 (some centres unmarked) [Compound 162] |  |  | < 5 | 1 to 10
15 | CCn1c(-c2cccnc2[C@H](C)OC)c2c3cc(ccc31)-c1cc(O)cc(c1)C[C@H](NC(=O)[C@H](C(C)C)N(C)C(=O)C13CC(CN1C(=O)[C@@H]1CN1)C3)C(=O)N1CCC[C@H](N1)C(=O)OCC(C)(C)C2 [Compound 163] | < 5 | 1 to 10 |  | 
16 | CCn1c(-c2cccnc2[C@H](C)OC)c2c3cc(ccc31)-c1cc(O)cc(c1)C[C@H](NC(=O)[C@H](C(C)C)N(C)C(=O)C13CC(CN1C(=O)[C@H]1CN1)C3)C(=O)N1CCC[C@H](N1)C(=O)OCC(C)(C)C2 [Compound 164] | < 5 | 1 to 10 |  | 

Row | SMILES | EC50 (AsPC-1 (K-Ras G12D) [1]; [3]) [µM] | IC50 (AsPC-1 (K-Ras G12D) [2]; [4]) [µM] | EC50 (AsPC-1 (K-Ras G12D) [1]; [5]) [µM] | IC50 (AsPC-1 (K-Ras G12D) [2]; [6]) [µM]
17 | CCn1c(-c2cccnc2[C@H](C)OC)c2c3cc(ccc31)-c1cc(O)cc(c1)C[C@H](NC(=O)[C@H](C(C)C)N(C)C(=O)[C@]13C[C@H]1CCN3C(=O)[C@@H]1CN1)C(=O)N1CCC[C@H](N1)C(=O)OCC(C)(C)C2 [Compound 166] | < 5 | 1 to 10 |  | 
18 | CCn1c(-c2cccnc2[C@H](C)OC)c2c3cc(ccc31)-c1cc(O)cc(c1)C[C@H](NC(=O)[C@H](C(C)C)N(C)C(=O)[C@H]1C[C@H](NC(=O)[C@@H]3CN3)C1)C(=O)N1CCC[C@H](N1)C(=O)OCC(C)(C)C2 [Compound 167] | < 5 | 1 to 10 |  | 
19 | CCn1c(-c2cccnc2[C@H](C)OC)c2c3cc(ccc31)-c1cc(O)cc(c1)C[C@H](NC(=O)[C@H](C(C)C)N(C)C(=O)[C@@H]1CCN(C(=O)[C@@H]3CN3)C1)C(=O)N1CCC[C@H](N1)C(=O)OCC(C)(C)C2 [Compound 172] | < 5 | 1 to 10 |  | 
20 | CCn1c(-c2cccnc2[C@H](C)OC)c2c3cc(ccc31)-c1cc(O)cc(c1)C[C@H](NC(=O)[C@H](C(C)C)N(C)C(=O)N1CCCN(C(=O)[C@@H]3CN3)CC1)C(=O)N1CCC[C@H](N1)C(=O)OCC(C)(C)C2 [Compound 173] | < 5 | 1 to 10 |  | 
21 | CCn1c(-c2cccnc2[C@H](C)OC)c2c3cc(ccc31)-c1cc(O)cc(c1)C[C@H](NC(=O)[C@H](C(C)C)N(C)C(=O)CC1CN(C(=O)[C@@H]3CN3)C1)C(=O)N1CCC[C@H](N1)C(=O)OCC(C)(C)C2 [Compound 178] | < 5 | > 10 |  | 
22 | CCn1c(-c2cccnc2[C@H](C)OC)c2c3cc(ccc31)-c1cc(O)cc(c1)C[C@H](NC(=O)[C@H](C(C)C)N(C)C(=O)CC1CN(C(=O)[C@H]3CN3)C1)C(=O)N1CCC[C@H](N1)C(=O)OCC(C)(C)C2 [Compound 179] | < 5 | > 10 |  | 
23 | CCn1c(-c2cccnc2[C@H](C)OC)c2c3cc(ccc31)-c1cc(O)cc(c1)C[C@H](NC(=O)[C@H](C(C)C)N(C)C(=O)[C@H]1C[C@H](NC(=O)[C@H]3CN3)C1)C(=O)N1CCC[C@H](N1)C(=O)OCC(C)(C)C2 [Compound 182] | < 5 | > 10 |  | 
24 | CCn1c(-c2cccnc2[C@H](C)OC)c2c3cc(ccc31)-c1cc(O)cc(c1)C[C@H](NC(=O)[C@H](C(C)C)N(C)C(=O)N1CCN(C(=O)[C@H]3CN3)CC1=O)C(=O)N1CCC[C@H](N1)C(=O)OCC(C)(C)C2 [Compound 183] | < 5 | > 10 |  | 
25 | CCn1c(-c2cccnc2[C@H](C)OC)c2c3cc(ccc31)-c1cc(O)cc(c1)C[C@H](NC(=O)[C@H](C(C)C)N(C)C(=O)[C@]1(F)CCN(C(=O)[C@@H]3CN3)C1)C(=O)N1CCC[C@H](N1)C(=O)OCC(C)(C)C2 [Compound 184] | < 5 | 1 to 10 |  | 
26 | CCn1c(-c2cccnc2[C@H](C)OC)c2c3cc(ccc31)-c1cc(O)cc(c1)C[C@H](NC(=O)[C@H](C(C)C)N(C)C(=O)[C@@]1(F)CCN(C(=O)[C@@H]3CN3)C1)C(=O)N1CCC[C@H](N1)C(=O)OCC(C)(C)C2 [Compound 185] | < 5 | 1 to 10 |  | 
27 | CCn1c(-c2cccnc2[C@H](C)OC)c2c3cc(ccc31)-c1cc(O)cc(c1)C[C@H](NC(=O)[C@H](C(C)C)N(C)C(=O)c1ccc(NC(=O)[C@@H]3CN3)cn1)C(=O)N1CCC[C@H](N1)C(=O)OCC(C)(C)C2 [Compound 187] | < 5 | 1 to 10 |  | 
28 | CCn1c(-c2cccnc2[C@H](C)OC)c2c3cc(ccc31)-c1cc(O)cc(c1)C[C@H](NC(=O)[C@H](C(C)C)N(C)C(=O)N1CCCN(C(=O)[C@H]3CN3)CC1)C(=O)N1CCC[C@H](N1)C(=O)OCC(C)(C)C2 [Compound 190] | < 5 | 1 to 10 |  | 
29 | CCn1c(-c2cccnc2[C@H](C)OC)c2c3cc(ccc31)-c1cc(O)cc(c1)C[C@H](NC(=O)[C@H](C(C)C)N(C)C(=O)[C@H]1CCN(C(=O)[C@@H]3N[C@@H]3C3CC3)C1)C(=O)N1CCC[C@H](N1)C(=O)OCC(C)(C)C2 [Compound 198] | < 5 | 0.1 to 1 |  | 
30 | CCn1c(-c2cccnc2[C@H](C)OC)c2c3cc(ccc31)-c1cc(O)cc(c1)C[C@H](NC(=O)[C@H](C(C)C)N(C)C(=O)N(C)CCN(C)C(=O)[C@H]1CN1)C(=O)N1CCC[C@H](N1)C(=O)OCC(C)(C)C2 [Compound 204] | < 5 | 1 to 10 |  | 
31 | CCn1c(-c2cccnc2[C@H](C)OC)c2c3cc(ccc31)-c1cc(O)cc(c1)C[C@H](NC(=O)[C@H](C(C)C)N(C)C(=O)N1CCN(C(=O)[C@@H]3CN3)CC1=O)C(=O)N1CCC[C@H](N1)C(=O)OCC(C)(C)C2 [Compound 205] | < 5 | > 10 |  | 

From patent US11739074B2, “Ras inhibitors” (Revolution Medicines, Inc., priority 2019, dated 2023)
